ChEMBL document CHEMBL1201862, “PubChem BioAssay data set” (2004)
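Grown in 96-well plates, cells were treated for 48 hours with each compound at five concentrations. Insufficient inhibition: endpoint recorded as highest concentration tested. GI50 marks 50% less growth.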 The source made the active and inactive calls. No stated cut-off is given here; in the data, active = GI50 up to about 1.1 µM and inactive = higher.

What was measured:
Assay in all cases: NCI anticancer screen, dose series, 48 h
RXF 393 = test system: RXF 393
SK-MEL-28 = test system: SK-MEL-28
HCT-15 = test system: HCT-15
MDA-N = test system: MDA-N
Hs-578T = test system: Hs-578T
CAKI-1 = test system: CAKI-1
UACC-62 = test system: UACC-62
UO-31 = test system: UO-31
PC-3 = test system: PC-3
K562 = test system: K562
HOP-62 = test system: HOP-62
OVCAR-8 = test system: OVCAR-8
MDA-MB-231 = test system: MDA-MB-231
SW-620 = test system: SW-620
A549 = test system: A549
786-0 = test system: 786-0
CCRF-CEM = test system: CCRF-CEM
M14 = test system: M14
DU-145 = test system: DU-145
BT-549 = test system: BT-549
SNB-19 = test system: SNB-19
SF-295 = test system: SF-295
RPMI-8226 = test system: RPMI-8226
SF-539 = test system: SF-539
SK-MEL-5 = test system: SK-MEL-5
TK-10 = test system: TK-10
NCI-H226 = test system: NCI-H226
EKVX = test system: EKVX
SN12C = test system: SN12C
IGROV-1 = test system: IGROV-1
SF-268 = test system: SF-268
COLO 205 = test system: COLO 205
MOLT-4 = test system: MOLT-4
NCI-H23 = test system: NCI-H23
HCT-116 = test system: HCT-116
UACC-257 = test system: UACC-257
OVCAR-3 = test system: OVCAR-3
HL-60 = test system: HL-60
HCC 2998 = test system: HCC 2998
NCI-H522 = test system: NCI-H522
SNB-75 = test system: SNB-75
MCF7 = test system: MCF7
HOP-92 = test system: HOP-92
LOX IMVI = test system: LOX IMVI
KM12 = test system: KM12
SK-OV-3 = test system: SK-OV-3
MDA-MB-435 = test system: MDA-MB-435
HT-29 = test system: HT-29
SK-MEL-2 = test system: SK-MEL-2
Malme-3M = test system: Malme-3M
SR = test system: SR
A498 = test system: A498
U-251 = test system: U-251
T47D = test system: T47D
ACHN = test system: ACHN
NCI-H460 = test system: NCI-H460
OVCAR-5 = test system: OVCAR-5
OVCAR-4 = test system: OVCAR-4
NCI/ADR-RES = test system: NCI/ADR-RES

Measured: GI50

O=P1(c2ccccc2)C(c2ccccc2)CCC1c1ccccc1 (centres undefined)
inactive: RXF 393 96.8 µM | SK-MEL-28 > 100 µM | MDA-N 15.1 µM | Hs-578T > 100 µM | CAKI-1 16.4 µM | UACC-62 50.7 µM | UO-31 66.1 µM | PC-3 33.6 µM | K562 10.8 µM | HOP-62 > 100 µM | OVCAR-8 91.4 µM | MDA-MB-231 42.9 µM | SW-620 89.9 µM | A549 65.8 µM | 786-0 > 100 µM | CCRF-CEM 21.4 µM | M14 68.5 µM | DU-145 > 100 µM | BT-549 29.7 µM | SNB-19 > 100 µM | SF-295 32.1 µM | RPMI-8226 22.1 µM | SF-539 > 100 µM | SK-MEL-5 37.2 µM | TK-10 71 µM | NCI-H226 91.8 µM | EKVX 29.5 µM | SN12C 34.9 µM | IGROV-1 82.6 µM | SF-268 > 100 µM | COLO 205 66.7 µM | MOLT-4 32.2 µM | NCI-H23 48.4 µM | HCT-116 35.6 µM | UACC-257 71.1 µM | OVCAR-3 53 µM | HL-60 10.2 µM | HCC 2998 > 100 µM | NCI-H522 26.4 µM | SNB-75 57.3 µM | MCF7 > 100 µM | HOP-92 45 µM | LOX IMVI 41.1 µM | KM12 30 µM | SK-OV-3 40.9 µM | MDA-MB-435 34.9 µM
28.8 µM: HCT-15

O=C(CC(=O)n1nc(-c2ccccc2)c(/N=N/c2ccc(Cl)cc2)c1-c1ccccc1)Nc1cccc(Cl)c1
inactive: RXF 393 > 100 µM | HT-29 75.7 µM | SK-MEL-28 > 100 µM | MDA-N > 100 µM | Hs-578T > 100 µM | UACC-62 73.8 µM | UO-31 30.5 µM | SK-MEL-2 > 100 µM | PC-3 75 µM | K562 46.7 µM | HOP-62 38 µM | OVCAR-8 81.1 µM | MDA-MB-231 54.7 µM | Malme-3M 42.9 µM | SW-620 > 100 µM | A549 > 100 µM | 786-0 59.6 µM | SR 37.8 µM | CCRF-CEM 38.9 µM | M14 70.1 µM | BT-549 > 100 µM | SNB-19 41.1 µM | A498 34.3 µM | RPMI-8226 65.6 µM | SK-MEL-5 > 100 µM | TK-10 > 100 µM | U-251 40.9 µM | NCI-H226 28.3 µM | EKVX 25.3 µM | SN12C 60.5 µM | IGROV-1 5.25 µM | COLO 205 > 100 µM | T47D > 100 µM | MOLT-4 35.9 µM | NCI-H23 > 100 µM | HCT-116 61.7 µM | UACC-257 > 100 µM | HL-60 28.5 µM | ACHN 63.8 µM | HCC 2998 > 100 µM | SNB-75 43.3 µM | MCF7 > 10 µM | HOP-92 > 100 µM | KM12 > 100 µM | NCI-H460 34.1 µM | OVCAR-5 96.4 µM
54.6 µM: HCT-15

O=c1cc(N2CCOCC2)[nH]c(=O)n1-c1cccc(C(F)(F)F)c1
> 100 µM: HCT-15
inactive: HT-29 > 100 µM | SK-MEL-28 > 100 µM | MDA-N > 100 µM | Hs-578T > 100 µM | OVCAR-4 > 100 µM | CAKI-1 > 100 µM | UACC-62 > 100 µM | UO-31 > 100 µM | SK-MEL-2 43.3 µM | K562 > 100 µM | HOP-62 > 100 µM | OVCAR-8 > 100 µM | MDA-MB-231 20.7 µM | Malme-3M > 100 µM | SW-620 > 100 µM | A549 > 100 µM | 786-0 > 100 µM | SR > 100 µM | CCRF-CEM > 100 µM | M14 > 100 µM | DU-145 > 100 µM | BT-549 > 100 µM | A498 > 100 µM | SF-295 > 100 µM | SF-539 > 100 µM | SK-MEL-5 > 100 µM | TK-10 > 100 µM | U-251 64.7 µM | NCI-H226 > 100 µM | EKVX > 100 µM | SN12C > 100 µM | IGROV-1 > 100 µM | SF-268 > 100 µM | COLO 205 > 100 µM | T47D > 100 µM | MOLT-4 > 100 µM | NCI-H23 > 100 µM | HCT-116 > 100 µM | UACC-257 > 100 µM | NCI/ADR-RES > 100 µM | OVCAR-3 > 100 µM | HL-60 > 100 µM | ACHN > 100 µM | HCC 2998 > 100 µM | NCI-H522 > 100 µM | SNB-75 > 100 µM | MCF7 > 100 µM | HOP-92 > 100 µM | LOX IMVI > 100 µM | KM12 > 100 µM | SK-OV-3 > 100 µM | MDA-MB-435 > 100 µM | NCI-H460 > 100 µM | OVCAR-5 > 100 µM

CCCCCCCCCCCCOP(=O)(O)OP(=O)(O)OCC1OC(n2cc(C)c(=O)[nH]c2=O)CC1O (centres undefined)
> 100 µM: HCT-15
inactive: RXF 393 > 100 µM | HT-29 > 100 µM | SK-MEL-28 > 100 µM | MDA-N > 100 µM | Hs-578T > 100 µM | OVCAR-4 > 100 µM | CAKI-1 > 100 µM | UO-31 > 100 µM | SK-MEL-2 > 100 µM | PC-3 > 100 µM | K562 > 100 µM | HOP-62 > 100 µM | OVCAR-8 > 100 µM | MDA-MB-231 > 100 µM | Malme-3M > 100 µM | SW-620 > 100 µM | A549 > 100 µM | 786-0 > 100 µM | CCRF-CEM > 100 µM | M14 > 100 µM | BT-549 > 100 µM | SNB-19 > 100 µM | A498 > 100 µM | SF-295 > 100 µM | RPMI-8226 > 100 µM | SF-539 > 100 µM | SK-MEL-5 > 100 µM | TK-10 > 100 µM | U-251 > 100 µM | NCI-H226 > 100 µM | EKVX > 100 µM | SN12C > 100 µM | IGROV-1 > 100 µM | SF-268 > 100 µM | COLO 205 > 100 µM | T47D > 100 µM | MOLT-4 > 100 µM | NCI-H23 > 100 µM | HCT-116 > 100 µM | UACC-257 > 100 µM | NCI/ADR-RES > 100 µM | OVCAR-3 > 100 µM | HL-60 > 100 µM | ACHN > 100 µM | HCC 2998 > 100 µM | NCI-H522 > 100 µM | SNB-75 > 100 µM | MCF7 > 100 µM | HOP-92 > 100 µM | LOX IMVI > 100 µM | KM12 > 100 µM | SK-OV-3 > 100 µM | MDA-MB-435 > 100 µM | NCI-H460 > 100 µM | OVCAR-5 > 100 µM

CC12CCC(=O)[C@@]1(C)CCCC2O (some centres undefined)
inactive: HT-29 > 100 µM | SK-MEL-28 > 100 µM | MDA-N > 100 µM | Hs-578T > 100 µM | OVCAR-4 > 100 µM | CAKI-1 > 100 µM | UACC-62 > 100 µM | UO-31 > 100 µM | SK-MEL-2 > 100 µM | PC-3 > 100 µM | K562 > 100 µM | HOP-62 > 100 µM | OVCAR-8 > 100 µM | MDA-MB-231 > 100 µM | Malme-3M > 100 µM | SW-620 > 100 µM | A549 > 100 µM | 786-0 > 100 µM | SR > 100 µM | CCRF-CEM > 100 µM | M14 > 100 µM | DU-145 > 100 µM | BT-549 > 100 µM | SNB-19 > 100 µM | SF-295 > 100 µM | RPMI-8226 > 100 µM | SF-539 > 100 µM | SK-MEL-5 > 100 µM | TK-10 > 100 µM | U-251 > 100 µM | NCI-H226 > 100 µM | EKVX > 100 µM | SN12C > 100 µM | IGROV-1 > 100 µM | SF-268 > 100 µM | COLO 205 > 100 µM | T47D > 100 µM | MOLT-4 > 100 µM | NCI-H23 > 100 µM | HCT-116 > 100 µM | UACC-257 > 100 µM | NCI/ADR-RES > 100 µM | HL-60 > 100 µM | ACHN > 100 µM | HCC 2998 > 100 µM | NCI-H522 > 100 µM | SNB-75 > 100 µM | MCF7 > 100 µM | LOX IMVI > 100 µM | KM12 > 100 µM | SK-OV-3 > 100 µM | NCI-H460 > 100 µM | OVCAR-5 > 100 µM
> 100 µM: HCT-15
